Here are results for 13 sequences from patent US20150322112A1, “SEMA5B PEPTIDES AND VACCINES CONTAINING THE SAME” (ONCOTHERAPY SCIENCE, INC., priority 2012, published 2015).

For assay [1], the system named is peptide-pulsed TISI cells. Kind of assay: In vitro CTL induction with peptide-pulsed DCs, IFN-gamma ELISPOT assay. The format is cell-based, human. Conditions: for Peptide specific CTL activity (IFN-gamma production), IFN-gamma ELISPOT: CTLs induced with the peptide, target cells pulsed with peptide vs not pulsed (control); for CTL inducibility: summary statement in the description. From the text:
Monocyte-derived dendritic cells (DCs) were used as antigen-presenting cells to induce cytotoxic T lymphocyte (CTL) responses against peptides presented on human leukocyte antigen (HLA). DCs were generated in vitro as described elsewhere (Nakahara S et al., Cancer Res 2003 Jul. 15, 63(14): 4112-8). Specifically, peripheral blood mononuclear cells isolated from a normal volunteer (HLA-A*2402 positive) by Ficoll-Paque plus (Pharmacia) solution were separated by adherence to a plastic tissue culture dish (Becton Dickinson) so as to enrich them as the monocyte fraction. The monocyte-enriched population was cultured in the presence of 1000 IU/ml of granulocyte-macrophage colony-stimulating factor (R&D System) and 1000 IU/ml of interleukin (IL)-4 (R&D System) in AIM-V Medium (Invitrogen) containing 2% heatinactivated autologous serum (AS). After 7 days of culture, the cytokine-induced DCs were pulsed with 20 micro g/ml of each of the synthesized peptides in the presence of 3 micro g/ml of beta 2-microglobulin for 3 hr at 37 degrees C. in AIM-V Medium. The generated cells appeared to express DC-associated molecules, such as CD80, CD83, CD86 and HLA class II, on their cell surfaces (data not shown). These peptide-pulsed DCs were then inactivated by X ray-irradiated (20 Gy) and mixed at a 1:20 ratio with autologous CD8+ T cells, obtained by positive selection with CD8 Positive Isolation Kit (Dynal). These cultures were set up in 48-well plates (Corning); each well contained 1.5×10^4 peptide-pulsed DCs, 3×10^5 CD8+ T cells and 10 ng/ml of IL-7 (R&D System) in 0.5 ml of AIM-V/2% AS medium. Three days later, these cultures were supplemented with IL-2 (CHIRON) to a final concentration of 20 IU/ml. On day 7 and 14, the T cells were further stimulated with the autologous peptide-pulsed DCs. The DCs were prepared each time by the same way described above. CTL was tested against peptide-pulsed TISI cells after the 3rd round of peptide stimulation on day 21 (Tanaka H et al., Br J Cancer 2001 Jan 5, 84(1): 94-9; Umano Y et al., Br J Cancer 2001 Apr. 20, 84(8): 1052-7; Uchida N et al., Clin Cancer Res 2004 Dec. 15, 10(24): 8577-86; Suda T et al., Cancer Sci 2006 May, 97(5): 411-9; Watanabe T et al., Cancer Sci 2005 August, 96(8): 498-506).
(§1) Peptide-pulsed TISI (1×10^4/well) was prepared as stimulator cells. Cultured cells in 48 wells were used as responder cells. IFN-gamma ELISPOT assay and IFN-gamma ELISA were performed under manufacture procedure.

Assay [2] deals with COS7 cells transfected with SEMA5B and HLA-A*2402. Kind of assay: Specific CTL activity against target cells expressing SEMA5B and HLA-A*2402. Conditions: CTL line established with the peptide. The class given is cell-based, African green monkey. From the text: The cDNA encoding an open reading frame of target genes or HLA-A*2402 was amplified by PCR. The PCR-amplified product was cloned into expression vector. The plasmids were transfected into COS7, which is the target genes and HLA-A*2402-null cell line, using lipofectamine 2000 (Invitrogen) according to the manufacturer's recommended procedures. After 2 days from transfection, the transfected cells were harvested with versene (Invitrogen) and used as the stimulator cells (5×10^4 cells/well) for CTL activity assay.
The established CTL line raised against SEMA5B-A24-10-290 (SEQ ID NO: 41) peptide was examined for the ability to recognize target cells that express SEMA5B and HLA-A*2402 molecule. COS7 cells transfected with both the full SEMA5B and HLA-A*2402 gene (a specific model for the target cells that express SEMA5B and HLA-A*2402 gene) were prepared as a stimulator cells, and COS7 cells transfected with either full length of SEMA5B or HLA-A*2402 were used as the controls.

Assay [3] relates to peptide-pulsed TISI cells. Kind of assay: IFN-gamma ELISA of expanded CTL lines. The conditions noted are these: CTL lines stimulated with the peptide; target cells pulsed with peptide vs without peptide pulse. The class given is cell-based, human. How it is done: CTLs were expanded in culture using the method similar to the one described by Riddell et al. (Walter E A et al., N Engl J Med 1995 October 19, 333(16): 1038-44; Riddell S R et al., Nat Med 1996 February, 2(2): 216-23). A total of 5×10^4 CTLs were suspended in 25 ml of AIM-V/5% AS medium with 2 kinds of human B-lymphoblastoid cell lines, inactivated by Mitomycin C, in the presence of 40 ng/ml of anti-CD3 monoclonal antibody (Pharmingen). One day after initiating the cultures, 120 IU/ml of IL-2 were added to the cultures. The cultures were fed with fresh AIM-V/5% AS medium containing 30 IU/ml of IL-2 on days 5, 8 and 11 (Tanaka H et al., Br J Cancer 2001 Jan 5, 84(1): 94-9; Umano Y et al., Br J Cancer 2001 Apr. 20, 84(8): 1052-7; Uchida N et al., Clin Cancer Res 2004 Dec. 15, 10(24): 8577-86; Suda T et al., Cancer Sci 2006 May, 97(5): 411-9; Watanabe T et al., Cancer Sci 2005 August, 96(8): 498-506).
as §1
(An ELISA detects its analyte on a solid surface through an enzyme-linked reagent.)

Assay [4] deals with peptide-pulsed TISI cells. Kind of assay: IFN-gamma ELISA of CTL clones established by limiting dilution. The format is cell-based, human. The conditions noted are these: CTL clones from limiting dilution, target cells pulsed with peptide vs not pulsed. How it is done:
The dilutions were made to have 0.3, 1, and 3 CTLs/well in 96 round-bottomed micro titer plate (Nalge Nunc International). CTLs were cultured with 1×10^4 cells/well of 2 kinds of human B-lymphoblastoid cell lines, 30 ng/ml of anti-CD3 antibody, and 125 IU/ml of IL-2 in a total of 150 micro 1/well of AIM-V Medium containing 5% AS. 50 micro 1/well of IL-2 were added to the medium 10 days later so to reach a final concentration of 125 IU/ml IL-2. CTL activity was tested on the 14th day, and CTL clones were expanded using the same method as described above (Uchida N et al., Clin Cancer Res 2004 Dec. 15, 10(24): 8577-86; Suda T et al., Cancer Sci 2006 May, 97(5): 411-9; Watanabe T et al., Cancer Sci 2005 August, 96(8): 498-506).
as §1

Entries after “also recorded” stand apart in the source; their conditions may differ. No end group written: not given here.

Consider CFLGSGLLTL [SEQ ID NO: 47, CFLGSGLLTL], for which the “Peptide specific CTL activity (IFN-gamma production), IFN-gamma ELISPOT” value (“Peptide specific CTL activity” for short) in assay [1] (listed as SEMA5B-A24-10-1044) was “potent IFN-gamma production; also recorded: significant and specific CTL activity”. The CTL inducibility result in assay [1] was “particularly high CTL inducibility”.

On to KWLNEPNFV [SEQ ID NO: 9, KWLNEPNFV], for which the “Peptide specific CTL activity” value in assay [1] (listed as SEMA5B-A24-9-280) is “potent IFN-gamma production; also recorded: significant and specific CTL activity”. Also, the CTL inducibility result in assay [1] was “particularly high CTL inducibility”.

Turning to AYDIGLFAYF [SEQ ID NO: 41, AYDIGLFAYF], in assay [2] (controls), the “Specific CTL activity against control COS7 cells expressing either HLA-A*2402 or SEMA5B” value was “no significant specific CTL activity”. For the same sequence, in assay [2] (listed as SEMA5B-A24-10-290), the “Specific CTL activity against COS7 cells transfected with both SEMA5B and HLA-A*2402” value is recorded as “potent CTL activity; also recorded: specific CTL activity”. In addition, the “IFN-gamma production of CTL lines, IFN-gamma ELISA” value (“IFN-gamma production of CTL lines” below) in assay [3] is on record as “potent IFN-gamma production”. Besides, in assay [4] (listed as SEMA5B-A24-10-290), the “IFN-gamma production of CTL clones, IFN-gamma ELISA” value (“IFN-gamma production of CTL clones” for short) is listed as “potent IFN-gamma production”. Also, the “Peptide specific CTL activity” value in assay [1] (listed as SEMA5B-A24-10-290) was “potent IFN-gamma production; also recorded: significant and specific CTL activity”. Besides, the CTL inducibility entry in assay [1] is “particularly high CTL inducibility”.

In the case of RFSHLVVDL [SEQ ID NO: 13, RFSHLVVDL], the “Peptide specific CTL activity” value in assay [1] (listed as SEMA5B-A24-9-470) is “potent IFN-gamma production; also recorded: significant and specific CTL activity”. Besides, the CTL inducibility entry in assay [1] was “particularly high CTL inducibility”.

Turning to LYIGTESGTI [SEQ ID NO: 54, LYIGTESGTI], in assay [1] (listed as SEMA5B-A24-10-489), the “Peptide specific CTL activity” value is “potent IFN-gamma production; also recorded: significant and specific CTL activity”. In assay [1], the CTL inducibility entry was “particularly high CTL inducibility”.

With FYYNELQSAF [SEQ ID NO: 40, FYYNELQSAF], the “Peptide specific CTL activity” value in assay [1] (listed as SEMA5B-A24-10-354) was “potent IFN-gamma production; also recorded: significant and specific CTL activity”. For the same sequence, the CTL inducibility result in assay [1] is given as “particularly high CTL inducibility”.

On to CYLEELHVL [SEQ ID NO: 2, CYLEELHVL], for which the “IFN-gamma production of CTL lines” value in assay [3] is listed as “potent IFN-gamma production”. Moreover, the “IFN-gamma production of CTL clones” value in assay [4] (listed as SEMA5B-A24-9-512) was “potent IFN-gamma production”. Also, the “Peptide specific CTL activity” value in assay [1] (listed as SEMA5B-A24-9-512) was “potent IFN-gamma production; also recorded: significant and specific CTL activity”. Besides, the CTL inducibility entry in assay [1] is reported as “particularly high CTL inducibility”.

Take IGLFAYFFL [SEQ ID NO: 10, IGLFAYFFL]: the “IFN-gamma production of CTL lines” value in assay [3] was “potent IFN-gamma production”. In addition, the “Peptide specific CTL activity” value in assay [1] (listed as SEMA5B-A24-9-293) is “potent IFN-gamma production; also recorded: significant and specific CTL activity”. The CTL inducibility result in assay [1] is listed as “particularly high CTL inducibility”.

In the case of IFWASWGSW [SEQ ID NO: 8, IFWASWGSW], in assay [1] (listed as SEMA5B-A24-9-723), the “Peptide specific CTL activity” value was “potent IFN-gamma production; also recorded: significant and specific CTL activity”. Further, the CTL inducibility result in assay [1] was “particularly high CTL inducibility”.

On to VFMCGTNAF [SEQ ID NO: 4, VFMCGTNAF], for which the “Peptide specific CTL activity” value in assay [1] (listed as SEMA5B-A24-9-196) is “potent IFN-gamma production; also recorded: significant and specific CTL activity”. The CTL inducibility entry in assay [1] was “particularly high CTL inducibility”.

In the case of AYRSQGACL [SEQ ID NO: 20, AYRSQGACL], in assay [1] (listed as SEMA5B-A24-9-558), the “Peptide specific CTL activity” value is “potent IFN-gamma production; also recorded: significant and specific CTL activity”. For the same sequence, the CTL inducibility result in assay [1] is “particularly high CTL inducibility”.

With PYSEIPVIL [SEQ ID NO: 3, PYSEIPVIL], the “IFN-gamma production of CTL lines” value in assay [3] is given as “potent IFN-gamma production”. In addition, in assay [4] (listed as SEMA5B-A24-9-1010), the “IFN-gamma production of CTL clones” value was “potent IFN-gamma production”. In assay [1] (listed as SEMA5B-A24-9-1010), the “Peptide specific CTL activity” value is “potent IFN-gamma production; also recorded: significant and specific CTL activity”. In addition, the CTL inducibility entry in assay [1] is on record as “particularly high CTL inducibility”.

Regarding LYAATVIDF [SEQ ID NO: 1, LYAATVIDF], the “Peptide specific CTL activity” value in assay [1] is “no specific IFN-gamma production”.
